Results reported in patent publication US10730851B2, “Polymorph of triaryldimethylpiperazine dihydrochloride and preparation method and application thereof” (priority 2016, dated 2020).
Where a name gives a salt, the structure may show the parent alone. Read-outs that look alike come from different tables or passages of the source.

What was measured:
[1] = Dynamic solubility test in water, SGF, FeSSIF, FaSSIF; assay type: physicochemical; conditions: for pH in clear solution: dihydrochloride
Method: The dynamic solubility of a free base, polymorph forms B, P, F, J and O in water or a biological medium such as Stimulated Gastric Fluid (SGF), Fed State Simulated Intestinal Fluid (FeSSIF) or Fasted State Simulated Intestinal Fluid (FaSSIF) is determined.
0.2 g sodium chloride and 0.1 g Triton X-100 is weighed and placed into a 100 mL volumetric flask. Purified water is added to dissolve. A stir is performed until the solid is completely dissolved. About 135 μL concentrated hydrochloric acid solution (37%, […]) is added, then the pH is adjusted to 1.8 with […] hydrochloric acid or 1 mmoL/L sodium hydroxide. Finally, the volume is fixed with purified water to obtain Stimulated Gastric Fluid (SGF) for later use.
Each of 0.41 mL glacial acetic acid, 0.20 g sodium hydroxide and 0.59 g sodium chloride is weighed and placed to a 50 mL volumetric flask. About 48 mL purified water is added to dissolve, the pH is adjusted to 5.0 with 1 mmoL/L hydrochloric acid or 1 mmoL/L sodium hydroxide, and the volume is fixed with purified water. Then 0.56 g of Simulated Intestinal Fluid powder (SIF powder for short, which is composed of […] with a molar ratio of 4:1) is added, stirred and ultrasonically dissolved to obtain Fed State Simulated Intestinal Fluid (FeSSIF) for later use.
Each of 0.17 g of anhydrous sodium dihydrogen phosphate (NaH2PO4), 0.021 g of sodium hydroxide and 0.31 g of sodium chloride is weighed and placed into a 50 mL volumetric flask. About 48 mL of purified water is added to dissolve, the pH is adjusted to 6.5 with 1 mmoL/L hydrochloric acid or 1 mmoL/L sodium hydroxide, and the volume is fixed with purified water. 0.11 g of SIF powder is added, stirred and ultrasonically dissolved to obtain Fasted State Simulated Intestinal Fluid (FaSSIF) for later use.
Each 30 mg of the free base, and polymorph forms B, P, F, J and O are weighed. 3 mL of purified water, Stimulated Gastric Fluid (SGF), Fed State Simulated Intestinal Fluid (FeSSIF) or Fasted State Simulated Intestinal Fluid (FaSSIF)) is added and oscillated at room temperature. 0.6 mL of suspension is taken each time at a set time point, filtered and separated with a 0.45 μm nylon filter membrane, then XRPD characterization is performed on the solid sample, and the concentration in the clear solution is measured by HPLC.

SPF-grade SD rats = assay: Forced swimming test; assay type: in vivo; conditions: rats; dihydrochloride
Method: Forced swimming test is used to test the antidepressant effects of polymorph forms P, F, O, B and J.
the swimming test equipment is a transparent glass round cylinder with a height of 46 cm and an inner diameter of 20 cm, the test water temperature is 23° C.˜25° C., the test water depth is 30 cm, and each cylinder is used only once.
300 mg of a polymorph form P is weighed with an electronic balance, and the polymorph form P is dissolved with 0.9% normal saline, and finally the volume is fixed to 100 mL with 0.9% normal saline, at this time, the concentration of dihydrochloride in the experimental reagent is 3 mg/mL for later use.
600 mg of a polymorph form P is weighed with an electronic balance, and the polymorph form P is dissolved with 0.9% normal saline, and finally the volume is fixed to 100 mL with 0.9% normal saline, at this time, the concentration of dihydrochloride in the experimental reagent is 6 mg/mL for later use.
400 mg of desipramine (DMI) is weighed with an electronic balance, DMI is dissolved with 0.9% normal saline, and then the volume is fixed to 100 mL with 0.9% normal saline for later use.
Forty SPF-grade SD rats are prepared and randomly divided into 4 groups, namely vehicle control group, positive control group, experimental group 1 and experimental group 2, with 10 rats in each group. The day before the test, the rats were placed in water for 15 min to pre-swim for 15 min in advance to adapt to the swimming test environment, then taken out and dried, placed in the cage under an infrared lamp for 15 min and then placed in the original cage. After 24 h, a formal swimming test is conducted, that is, the rats are put into water again after 24 h, and the rats are continuously observed for 5 min. The swimming process are needed to be photographed. The drug is administered during two swimming sessions.
The positive control group containing DMI is administered three times, at 23.5 h, 5 h and 1 h before the formal swimming test respectively. Vehicle control group, experimental group 1 and experimental group 2 are each administered only once and subcutaneously within 1 h.
The behaviors of the rats are scored by the scorer every 5 seconds after recording the experiment.
1) Static—when the rat floats on the water surface without struggling and moves only to keep its head above the water surface, the rat is evaluated as static;
2) Swimming—if the rats have obvious swimming behaviors, not only to keep their heads above the water surface, or to travel around in a round cylinder, they are evaluated as swimming;
3) Wall climbing—the rats' front paws have obvious behavior of entering and leaving the water surface, usually, rats are evaluated as wall climbing in front of the round cylinder wall.
All behavioral are scored by a single person. To avoid bias of observation, the scorer only observed and scored without knowing the administration situations. Then multiple test fragments are randomly selected, and the scorer will score the second round to determine the accuracy of observation. The test video is scored again by the second scorer to determine the accuracy between scorers. The second scorer are also required to observe without knowing the drug administration. Finally, in order to determine the effectiveness of the method, the first scorer scored again and recorded the duration of various behaviors with a stopwatch.
SPSSwin11.0 software is used for variance analysis. One-way variance analysis is used for homogeneity of variance, and Dunnett test is used for heterogeneity of variance.

SMILES | solubility compared with the free base [1] | pH in clear solution ([1]; FaSSIF, Time 1) | pH in clear solution ([1]; FaSSIF, Time 2) | pH in clear solution ([1]; FaSSIF, Time 4) | pH in clear solution ([1]; FaSSIF, Time 24) | pH in clear solution ([1]; FeSSIF, Time 1) | pH in clear solution ([1]; FeSSIF, Time 2) | pH in clear solution ([1]; FeSSIF, Time 4) | pH in clear solution ([1]; FeSSIF, Time 24) | pH in clear solution ([1]; SGF, Time 1) | pH in clear solution ([1]; SGF, Time 2) | pH in clear solution ([1]; SGF, Time 4) | pH in clear solution ([1]; SGF, Time 24) | pH in clear solution ([1]; Water, Time 1) | pH in clear solution ([1]; Water, Time 2) | pH in clear solution ([1]; Water, Time 4) | pH in clear solution ([1]; Water, Time 24) | solubility compared with the free base ([1]; pH 1.8) | antidepressant effect in forced swimming test (in words) (SPF-grade SD rats) | Crystal form of insoluble solid sample [1]
CC1CCN(C(=O)c2ccc([C@H](c3cccc(O)c3)N3C[C@@H](C)N(Cc4cccc(F)c4)C[C@@H]3C)cc2)CC1 [Polymorph form B, (4-((R)-((2S,5R)-4-(3-fluorobenzyl)-(2,5-dimethylpiperazine-1-yl)(3-hydroxyphenyl)methyl)phenyl)(4-methylpiperidine-1-yl)methanone dihydrochloride] | significantly improved | 2.5 | 2.6 | 2.5 | 2.3 | 4.8 | 4.8 | 4.8 | 4.6 | 1.5 | 1.5 | 1.5 | 1.5 | 1.8 | 1.8 | 1.8 | 1.7 | close to or slightly improved | effectively reduce the static times and duration of forced swimming in rats | –
CC1CCN(C(=O)c2ccc([C@H](c3cccc(O)c3)N3C[C@@H](C)N(Cc4cccc(F)c4)C[C@@H]3C)cc2)CC1 [Polymorph form J, (4-((R)-((2S,5R)-4-(3-fluorobenzyl)-(2,5-dimethylpiperazine-1-yl)(3-hydroxyphenyl)methyl)phenyl)(4-methylpiperidine-1-yl)methanone dihydrochloride] | significantly improved | 2.8 | 3.0 | 2.8 | 2.6 | 4.8 | 5.0 | 4.9 | 4.7 | 1.7 | 1.5 | 1.5 | 1.6 | 1.8 | 1.7 | 1.7 | 1.4 | close to or slightly improved | effectively reduce the static times and duration of forced swimming in rats | amorphism
